Test results as given in patent US20260055097A9, “NRF2 PROTEIN DEGRADERS” (Ganymede Oncology, Inc., priority 2022, published 2026).
Read-outs that look alike come from different tables or passages of the source.

Columns and labels:
Nrf2 = target: T1, Nrf2 (Homo sapiens, UniProt Q16236); assay: Nrf2 degradation in A549 HiBiT-Nrf2 cells, Nano-Glo HiBiT lytic detection (HiBiT readout); format: cell-based; design: host or cells: A549 HiBiT-Nrf2 cells (engineered line bought from Promega)
T1 sequence (Q16236 1-605): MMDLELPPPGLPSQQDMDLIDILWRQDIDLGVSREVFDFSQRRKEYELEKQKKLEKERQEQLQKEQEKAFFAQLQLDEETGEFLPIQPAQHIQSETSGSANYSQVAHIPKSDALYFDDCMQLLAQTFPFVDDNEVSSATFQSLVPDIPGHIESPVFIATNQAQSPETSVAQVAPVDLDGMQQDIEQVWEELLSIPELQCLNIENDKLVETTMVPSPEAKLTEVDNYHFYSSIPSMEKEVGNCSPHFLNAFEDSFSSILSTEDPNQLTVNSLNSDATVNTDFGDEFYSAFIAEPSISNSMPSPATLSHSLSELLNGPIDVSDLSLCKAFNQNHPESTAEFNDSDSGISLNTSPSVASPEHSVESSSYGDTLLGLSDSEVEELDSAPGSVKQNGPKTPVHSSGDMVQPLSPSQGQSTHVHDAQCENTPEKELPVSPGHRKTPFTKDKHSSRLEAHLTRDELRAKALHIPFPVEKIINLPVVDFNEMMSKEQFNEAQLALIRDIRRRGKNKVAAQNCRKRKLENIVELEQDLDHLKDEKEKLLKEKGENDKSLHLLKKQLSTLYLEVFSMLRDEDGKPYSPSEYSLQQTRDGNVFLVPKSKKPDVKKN
Outline: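 A549 HiBiT-Nrf2 cells seeded at 5,000 cells/well in Ham's F-12 with 10% FBS, then treated next day for 6 h and 20 h at 37 °C, 5% CO2. Nrf2 degradation read by Nano-Glo HiBiT lytic luminescence after 30 min at room temperature; staurosporine served as control.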

A549 = assay: Cancer cell viability, A549 (CellTiter-Glo); format: cell-based; settings: Homo sapiens, 72 h, A549 cells, 3 days, read-out: Cellular IC50 (μM) A549
Outline: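 A549 and/or LK-2 lung carcinoma cells seeded overnight (20 K/mL A549; 35 K/mL LK-2), then exposed to compound for 3 days. Viability read as CellTiter-Glo luminescence after 15 min lysis; data fitted to curves.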

[1] = 6 h, read-out: DC50 (nM) at 6 h
[2] = 20 h, read-out: DC50 (nM) at 20 h

| SMILES | DC50 (Nrf2; [1]) [nM] | DC50 (Nrf2; [2]) [nM] | IC50 (A549) [µM] |
| --- | --- | --- | --- |
| Cc1sc(NC(=O)Cc2ccc(F)c(OCCOCCNc3ccc4c(c3)CN(C3CCC(=O)NC3=O)C4=O)c2)nc1-c1ccc2c(c1)CCN2C(=O)c1cncn1C (stereo not drawn) [Cpd. No. 30, 2-(3-(2-(2-((2-(2,6-dioxopiperidin-3-yl)-1-oxoisoindolin-5-yl)amino)ethoxy)ethoxy)-4-fluorophenyl)-N-(5-methyl-4-(1-(1-methyl-1H-imidazole-5-carbonyl)indolin-5-yl)thiazol-2-yl)acetamide] | < 300 | > 3000 | 0.01 |
| Cc1sc(NC(=O)Cc2cccc(OCCOCCNc3cccc4c3C(=O)N(C3CCC(=O)NC3=O)C4=O)c2)nc1-c1ccc2c(c1)CCN2C(=O)C1CC1 (stereo not drawn) [Cpd. No. 34, N-(4-(1-(cyclopropanecarbonyl)indolin-5-yl)-5-methylthiazol-2-yl)-2-(3-(2-(2-((2-(2,6-dioxopiperidin-3-yl)-1,3-dioxoisoindolin-4-yl)amino)ethoxy)ethoxy)phenyl) acetamide] | < 300 | < 300 | 0.06 |
